Drawing on patent US7566712B2, “Biaryl piperazinyl-pyridine analogues” (Neurogen Corporation, priority 2003, dated 2009), this text covers IC50 for 30 compounds.

T1 sequence (Q8NER1 whole entry): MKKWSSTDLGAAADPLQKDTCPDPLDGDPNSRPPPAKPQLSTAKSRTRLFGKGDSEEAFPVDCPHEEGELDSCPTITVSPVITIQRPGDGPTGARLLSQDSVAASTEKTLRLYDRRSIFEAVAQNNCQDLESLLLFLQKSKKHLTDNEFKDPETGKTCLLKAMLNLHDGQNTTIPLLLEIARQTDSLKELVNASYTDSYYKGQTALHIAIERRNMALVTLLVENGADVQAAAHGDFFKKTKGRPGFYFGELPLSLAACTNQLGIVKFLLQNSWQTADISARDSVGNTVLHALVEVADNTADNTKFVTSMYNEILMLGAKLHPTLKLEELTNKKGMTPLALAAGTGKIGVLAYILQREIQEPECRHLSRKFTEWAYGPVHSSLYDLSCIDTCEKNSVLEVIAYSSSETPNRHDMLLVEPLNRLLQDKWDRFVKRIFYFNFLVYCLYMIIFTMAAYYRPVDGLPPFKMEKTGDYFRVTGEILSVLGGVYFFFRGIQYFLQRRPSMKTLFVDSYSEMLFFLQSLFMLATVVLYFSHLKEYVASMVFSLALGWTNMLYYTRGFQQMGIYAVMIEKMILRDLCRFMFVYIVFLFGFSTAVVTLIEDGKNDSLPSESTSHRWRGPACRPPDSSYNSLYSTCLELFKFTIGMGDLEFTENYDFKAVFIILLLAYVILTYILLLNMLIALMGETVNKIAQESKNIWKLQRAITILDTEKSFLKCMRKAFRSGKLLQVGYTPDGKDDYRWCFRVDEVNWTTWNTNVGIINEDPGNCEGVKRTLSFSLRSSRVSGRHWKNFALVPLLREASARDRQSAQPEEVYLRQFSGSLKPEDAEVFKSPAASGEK

The first test concerns the target T1, human capsaicin receptor (Homo sapiens, UniProt Q8NER1).
T1 construct: pBK-CMV expression construct encoding the full length human capsaicin receptor; expressed in transfected cells
Description: Calcium mobilization assay, determination of antagonist activity (Example 6). Type of test: cell-based. As to conditions: Table II; IC50 determined as described in Example 6. An outline of the steps: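 Antagonism measured as inhibition of capsaicin-evoked (final concentration = EC50, from an 8-point 1 nM–3 μM curve) Fluo-3 calcium signal in stable hVR1-HEK293 cells. Test compounds at 1–5 μM final, 0.5–6 h dark preincubation at room temperature. IC50 = concentration giving 50% reduction versus agonist-only response.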
For orientation: A change in cytosolic calcium serves as a functional read-out for many receptors and channels.
Regarding `C[C@@H]1CN(c2ncccc2Cl)CCN1c1cc(-c2cccc(F)c2)nc(N2CCOCC2)n1` [Example 488, 4-[4-[(2R)-4-(3-chloropyridin-2-yl)-2-methylpiperazin-1-yl]-6-(3-fluorophenyl)pyrimidin-2-yl]morpholine], the concentration for half-maximal inhibition (IC50) (in general, the concentration that inhibits the measured activity by half) is ≤ 1 µM.

Take `FC(F)(F)c1ccc(-c2nc(N3CCOCC3)nc(N3CCN(c4ncccc4C(F)(F)F)CC3)n2)cc1` [Example 437, 2-morpholin-4-yl-4-[4-(trifluoromethyl)phenyl]-6-{4-[3-(trifluoromethyl)pyridin-2-yl]piperazin-1-yl}-1,3,5-triazine]: the IC50 is ≤ 1 µM.

As for `CCc1cccc(-c2cc(N3CCN(c4ncccc4C#N)C[C@H]3C)nc(N3CCOCC3)n2)c1` [Example 514, 2-{(3R)-4-[6-(3-ethylphenyl)-2-morpholin-4-ylpyrimidin-4-yl]-3-methylpiperazin-1-yl}nicotinonitrile], the IC50 was ≤ 1 µM.

Take `O=C(O)[C@@H]1CCCN1c1nc(-c2ccc(F)c(Cl)c2)cc(N2CCN(c3ncccc3C(F)(F)F)CC2)n1` [Example 552, 1-(4-(3-chloro-4-fluorophenyl)-6-{4-[3-(trifluoromethyl)pyridin-2-yl]piperazin-1-yl}pyrimidin-2-yl)-L-proline]: the IC50 is ≤ 1 µM.

Regarding `CC(C)c1cccc(-c2cc(N3CCN(c4ncccc4C#N)C[C@H]3C)nc(N3CCOCC3)n2)c1` [Example 499, 2-{(3R)-4-[6-(3-isopropylphenyl)-2-morpholin-4-ylpyrimidin-4-yl]-3-methylpiperazin-1-yl}nicotinonitrile], the IC50 is ≤ 1 µM.

As to `CC(=O)NC1CCN(c2nc(-c3ccc(F)c(Cl)c3)cc(N3CCN(c4ncccc4C(F)(F)F)CC3)n2)CC1` [Example 571, N-[1-(4-(3-chloro-4-fluorophenyl)-6-{4-[3-(trifluoromethyl)pyridin-2-yl]piperazin-1-yl}pyrimidin-2-yl)piperidin-4-yl]acetamide], the IC50 was ≤ 1 µM.

For the compound `CCN(CC)C1CCN(c2nc(-c3ccc(F)c(Cl)c3)cc(N3CCN(c4ncccc4C(F)(F)F)CC3)n2)CC1` [Example 563, 1-(4-(3-chloro-4-fluorophenyl)-6-{4-[3-(trifluoromethyl)pyridin-2-yl]piperazin-1-yl}pyrimidin-2-yl)-N,N-diethylpiperidin-4-amine], the IC50 is ≤ 1 µM.

Take `Fc1ccc(-c2cc(N3CCN(c4ncccc4C(F)(F)F)CC3)nc(OCC3CCCO3)n2)cc1Cl` (stereo not drawn) [Example 556, 4-(3-chloro-4-fluorophenyl)-2-(tetrahydrofuran-2-ylmethoxy)-6-{4-[3-(trifluoromethyl)pyridin-2-yl]piperazin-1-yl}pyrimidine]: the IC50 was ≤ 1 µM.

The same test, now with this note: Table II; IC50 determined as described in Example 6 (antagonist activity, calcium mobilization).
As to `C[C@H]1CN(c2ncccc2Cl)CCN1c1cc(-c2ccc(F)c(Cl)c2)nc(N2CCOC[C@@H]2C)n1` [Example 1005, (3S)-4-{4-(3-chloro-4-fluorophenyl)-6-[(2S)-4-(3-chloropyridin-2-yl)-2-methylpiperazin-1-yl]pyrimidin-2-yl}-3-methylmorpholine], the IC50 was ≤ 1 µM.

In the case of `Cc1ccc(-c2cc(N3CCN(c4ncccc4Cl)C[C@H]3C)nc(N3CCCC3)n2)cc1Cl` [Example 997, 4-(3-chloro-4-methylphenyl)-6-[(2R)-4-(3-chloropyridin-2-yl)-2-methylpiperazin-1-yl]-2-pyrrolidin-1-ylpyrimidine], the IC50 was ≤ 1 µM.

Staying with this test, now noted: Table II; determined as described in Example 6 (antagonist activity); "*" = 1 micromolar or less.
Consider `Fc1ccc(-c2cc(N3CCN(c4ncccc4C(F)(F)F)CC3)nc(N3CCN4CCC[C@H]4C3)n2)cc1Cl` [Example 891, (8aS)-2-(4-(3-chloro-4-fluorophenyl)-6-{4-[3-(trifluoromethyl)pyridin-2-yl]piperazin-1-yl}pyrimidin-2-yl)octahydropyrrolo[1,2-a]pyrazine], for which the IC50 was ≤ 1 µM.

For the compound `C[C@@H]1CN(c2nccnc2Cl)CCN1c1cc(-c2ccc(F)c(Cl)c2)nc(N2CCCC2)n1` [Example 909, 4-(3-chloro-4-fluorophenyl)-6-[(2R)-4-(3-chloropyrazin-2-yl)-2-methylpiperazin-1-yl]-2-pyrrolidin-1-ylpyrimidine], the IC50 is ≤ 1 µM.

With `Cc1cc(-c2cc(N3CCN(c4ncccc4Cl)C[C@@H]3C)nc(N3CCCC3)n2)ccc1F` [Example 902, 4-[(2S)-4-(3-chloropyridin-2-yl)-2-methylpiperazin-1-yl]-6-(4-fluoro-3-methylphenyl)-2-pyrrolidin-1-ylpyrimidine], the IC50 is ≤ 1 µM.

For the compound `Cc1ccc(-c2cc(N3CCN(c4ncccc4Cl)C[C@H]3C)nc(N3CCCC3)n2)cc1F` [Example 802], the IC50 is ≤ 1 µM.

As for `C[C@@H]1CN(c2nccnc2Cl)CCN1c1cc(-c2ccc(F)cc2)nc(Cl)n1` [Example 920, 2-chloro-4-[(2R)-4-(3-chloropyrazin-2-yl)-2-methylpiperazin-1-yl]-6-(4-fluorophenyl)pyrimidine], the IC50 is ≤ 1 µM.

`Fc1ccc(-c2cc(N3CCN(c4ncccc4C(F)(F)F)CC3)nc(C3=CCNCC3)n2)cc1Cl` [Example 864, 4-(3-chloro-4-fluorophenyl)-2-(1,2,3,6-tetrahydropyridin-4-yl)-6-{4-(3-(trifluoromethyl)pyridin-2-yl]piperazin-1-yl}pyrimidine]: the IC50 was ≤ 1 µM.

Turning to `Cc1cc(-c2cc(N3CCN(c4nccnc4Cl)C[C@H]3C)nc(Cl)n2)ccc1F` [Example 912, 2-chloro-4-[(2R)-4-(3-chloropyrazin-2-yl)-2-methylpiperazin-1-yl]-6-(4-fluoro-3-methylphenyl)pyrimidine], the IC50 was ≤ 1 µM.

For `CNC(=O)c1cnc(N2CCN(c3cc(-c4ccc(F)c(Cl)c4)nc(N4CCCC4C)n3)CC2)c(Cl)c1` (stereo not drawn) [Example 825, 5-chloro-6-{4-[6-(3-chloro-4-fluorophenyl)-2-(2-methylpyrrolidin-1-yl)pyrimidin-4-yl]piperazin-1-yl}-N-methylnicotinamide], the IC50 was ≤ 1 µM.

As to `CCOC(=O)CN(C)c1nc(-c2ccc(F)c(Cl)c2)cc(N2CCN(c3ncccc3C(F)(F)F)CC2)n1` [Example 812, ethyl N-(4-(3-chloro-4-fluorophenyl)-6-{4-[3-(trifluoromethyl)pyridin-2-yl]piperazin-1-yl}pyrimidin-2-yl)-N-methylglycinate], the IC50 is ≤ 1 µM.

`CCNC(=O)c1cnc(N2CCN(c3cc(-c4ccc(F)c(Cl)c4)nc(N4CCCC4C)n3)[C@H](C)C2)c(Cl)c1` (stereo partly drawn) [Example 933, 5-chloro-6-{4-[6-(3-chloro-4-fluorophenyl)-2-(2-methylpyrrolidin-1-yl)pyrimidin-4-yl]-3-methylpiperazin-1-yl}-N-ethylnicotinamide]: the IC50 was ≤ 1 µM.

In the case of `C[C@@H]1CN(c2ncccc2Cl)CCN1c1cc(-c2cccc(C#N)c2)nc(N2CCOCC2)n1` (stereo in doubt) [Example 870, 3-{6-[4-(3-chloropyridin-2-yl)-2-methylpiperazin-1-yl]-2-morpholin-4-ylpyrimidin-4-yl}benzonitrile], the IC50 is ≤ 1 µM.

Staying with this test, now noted: determined as described in Example 6 (calcium mobilization, antagonist activity); Table II.
In the case of `C[C@@H]1CN(c2ncccc2C(F)(F)F)CCN1c1cc(-c2ccc(F)c(Cl)c2)nc(N2CCCC2)n1` [Example 763, 4-(3-chloro-4-fluorophenyl)-6-{(2R)-2-methyl-4-[3-(trifluoromethyl)pyridin-2-yl]piperazin-1-yl}-2-pyrrolidin-1-ylpyrimidine], the IC50 was ≤ 1 µM.

`CC(C)CN(C)c1nc(-c2ccc(F)c(Cl)c2)cc(N2CCN(c3ncccc3C(F)(F)F)CC2)n1` [Example 615, 4-(3-chloro-4-fluorophenyl)-N-isobuty-methyl-6-{4-[3-(trifluoromethyl)pyridin-2-yl]piperazin-1-yl}pyrimidin-2-amine]: the IC50 was ≤ 1 µM.

Turning to `CCN(CC)c1nc(-c2cccc(C)c2)cc(N2CCN(c3ncccc3C(F)(F)F)CC2)n1` [Example 604, N,N-diethyl-4-(3-methylphenyl)-6-{4-[3-(trifluoromethyl)pyridin-2-yl]piperazin-1-yl}pyrimidin-2-amine], the IC50 was ≤ 1 µM.

Regarding `Cc1cc(-c2cc(N3CCN(c4ncccc4C(F)(F)F)CC3)nc(N3CCNCC3)n2)ccc1F` [Example 645, 4-(4-fluoro-3-methylphenyl)-2-piperazin-1-yl-6-{4-[3-(trifluoromethyl)pyridin-2-yl]piperazin-1-yl}pyrimidine], the IC50 is ≤ 1 µM.

`O=S(=O)(Cc1ccccc1)c1nc(-c2ccc(F)c(Cl)c2)cc(N2CCN(c3ncccc3C(F)(F)F)CC2)n1` [Example 650, 2-(benzylsulfonyl)-4-(3-chloro-4-fluorophenyl)-6-{4-[3-(trifluoromethyl)pyridin-2-yl]piperazin-1-yl}pyrimidine]: the IC50 is ≤ 1 µM.

Regarding `Cc1cc(-c2cc(N3CCN(c4ncccc4C(F)(F)F)C[C@H]3C)nc(N3CCCC3)n2)ccc1F` [Example 753, 4-(4-fluoro-3-methylphenyl)-6-{(2R)-2-methyl-4-[3-(trifluoromethyl)pyridin-2-yl]piperazin-1-yl}-2-pyrrolidin-1-ylpyrimidine], the IC50 was ≤ 1 µM.

On to `COC[C@H]1CCCN1c1nc(-c2ccc(F)c(C)c2)cc(N2CCN(c3ncccc3C(F)(F)F)C[C@H]2C)n1` [Example 761, 4-(4-fluoro-3-methylphenyl)-2-[(2R)-2-(methoxymethyl)pyrrolidin-1-yl]-6-{(2R)-2-methyl-4-[3-(trifluoromethyl)pyridin-2-yl]piperazin-1-yl}pyrimidine], for which the IC50 was ≤ 1 µM.

`COC[C@H]1CCCN1c1nc(-c2ccc(F)c(Cl)c2)cc(N2CCN(c3ncccc3Cl)C[C@H]2C)n1` [Example 733, 4-(3-chloro-4-fluorophenyl)-6-[(2R)-4-(3-chloropyridin-2-yl)-2-methylpiperazin-1-yl]-2-[(2R)-2-(methoxymethyl)pyrrolidin-1-yl]pyrimidine]: the IC50 was ≤ 1 µM.

Turning to `Cc1cc(-c2cc(N3CCN(c4ncccc4Cl)CC3)nc(N3CCCCC3)n2)ccc1F` [Example 717, 4-[4-(3-chloropyridin-2-yl)piperazin-1-yl]-6-(4-fluoro-3-methylphenyl)-2-piperidin-1-ylpyrimidine], the IC50 is ≤ 1 µM.
